# Measured values as given in patent US7850984B2, “Protection of the female reproductive system from natural and artificial insults” (The General Hospital Corporation, priority 2000, dated 2010).
# “Also recorded” adds a separate entry of the source.
# Assays:
# C57BL/6J female mice = test: Mating trials of irradiated female mice; assay type: in vivo, mouse
# Protocol: Eight-week old C57BL/6J female mice (Jackson Laboratories) are anesthetized by intraperitoneal injection of Avertin (30 μl of a 1.25% stock solution per gram of body weight; Aldrich Chemical Co.), and dorsal incisions are made to retrieve and expose the ovaries. Five μl of vehicle (5% polyethylene glycol, 2.5% ethanol, and 0.8% Tween-80, or PET) or of a stock of 2 mM S1P (BIOMOL) prepared in PET are injected into the bursa surrounding each ovary (see Example 10). Based on an estimated bursal cavity volume of 50 μl, the final concentration of S1P following this procedure is 200 μM. The ovaries are returned to the peritoneal cavity, the incisions are sutured, and the mice are allowed to recover for a 2-h pre-treatment period. Mice are then given a single dose of 0.05 or 0.1 Gy of abdominally directed ionizing radiation, using a cesium^137 source (Shepherd Mar-I, Model 68) at a dose rate of 0.7 Gy min^−1.
# To evaluate whether the acute protection of oocytes by S1P also results in long-term preservation of ovarian function and fertility, mating trials are initiated 2 months after irradiation. For these studies, 8-week old C57BL/6J female mice are given intrabursal injections of vehicle or a maximally effective dose of S1P (0.2 mM final concentration in the bursal cavity) two hours before exposure to 0.1 Gy of ionizing radiation, delivered as a single dose. […] Females, irradiated without or with S1P pre-treatment, are then mated with non-irradiated C57BL/6J males beginning 2 months post-irradiation. The F0 females are caged with adult (2-4 month old) wild type C57BL/6J males for 15 d. As a control to assure the fertility of the males, each is mated to a female of proven fertility. After delivery, pups of first time mothers are fostered while pups of subsequent litters are maintained with their natural mothers. […] The F0 female mice are bred again with a new wild type male two weeks after the pups are weaned, and the process is repeated for a total of 4 matings.
# It is next examined whether preservation of ovarian function and fertility might result in propagation of genomic damage to the F2 progeny. To generate F2 offspring, F1 males and females are each bred at 2 months of age with adult (2-4 month old) wild type C57BL/6J females or males, respectively (see FIG. 6 for details).
# [1] = tested on: ovaries (oocyte-containing follicles); test: S1P protection against radiation in vivo, histomorphometric count of non-atretic oocyte-containing follicles; design: species or system mouse
# Protocol: The serial sections from each ovary are aligned in order on glass microscope slides, stained with hematoxylin/picric methyl blue, and analyzed for the number of healthy (non-atretic) oocyte-containing primordial, primary and small preantral follicles as described by Perez et al. Nat. Genet.
# Young adult (postpartum day 40) wild-type female mice are anesthetized, and dorsal incisions are made to retrieve and expose the ovaries. Five μl of vehicle (PET) are injected into the bursa of one ovary of the pair while 5 μl of a stock of either 0.5 or 2 mM S1P, prepared in PET, are injected into the bursa of the contralateral ovary. Based on an estimated bursal cavity volume of 50 μl, the final concentrations of S1P in the bursal cavity for ovarian exposure following administration of the 0.5 and 2 mM stocks are approximately 50 and 200 μM, respectively. The ovaries are returned to the peritoneal cavity, the incisions are sutured, and the mice are allowed to recover for a 2 hour pretreatment period prior to a single exposure to 0.1 Gy of abdominally-directed ionizing radiation.
# F1 and F2 mice = test: Necropsy, histology and hematology of F1 and F2 offspring; assay type: in vivo; details: for HCT / HGB, Hemoglobin / MCH, Mean Corpuscular Hemoglobin / MCHC, Mean Corpuscular Hemoglobin Content / MCV, Mean Corpuscular Volume / RBC, Red Blood Cell Count / WBC, Total White Blood Cell Count: 0.1 Gy + S1P, mean, 95% confidence limit; for Pathology, gross necropsy / Pathology, histology: offspring of 0.1 Gy + S1P mothers
# Protocol: When the F1 animals reach 18-20 months of age and the F2 animals reach 12-16 months of age, all mice are euthanized and subjected to gross necropsy and biochemical analysis. Organs from a subgroup of 65 randomly selected animals in the two different generations are also subjected to complete histologic analysis.
# Eighteen to 20 month-old F1 mice, and 12-16 month-old F2 mice, are euthanized and gross pathology is assessed immediately upon death. In a total of 484 mice, the heart, lung, stomach, small and large intestine, liver, salivary gland, kidney, urinary bladder, brain, cervical spinal cord, muscle, bone, bone marrow, skin, pituitary, thyroid, pancreas, adrenal, lymph node, spleen, thymus, testis (males), seminal vesicle (males), prostate (males), ovary (females), and uterus (females) are evaluated. Any organ showing gross abnormalities is fixed with 10% paraformaldehyde, encased in paraffin, and stained with hematoxylin and eosin for in-depth histologic analysis. Furthermore, histology on all organs is performed on 65 randomly selected mice of different generations (F1 or F2), different genders, and different experimental treatments. From an additional 28 randomly-selected mice, blood is collected by cardiac puncture for hematologic analysis, and in 9 animals full differential counts are performed. Differential white cell counts are also performed in all mice displaying a pathological phenotype.
# oocytes = details: mouse oocytes cultured with S1P before doxorubicin exposure; Perez et al. (1997); cited from earlier work
# [2] = tested on: ovaries (oocyte-containing follicles); details: Morita et al., Nat. Med. 6 (2000); cited from earlier work
# [3] = N=189, numbers in parenthesis = animals
smiles,measurement,setting,value
"CCCCCCCCCCCCC/C=C/[C@@H](O)[C@@H](N)COP(=O)(O)O [S1P, sphingosine-1-phosphate]",irradiated females remaining fertile after one year,"C57BL/6J female mice; 200 μM S1P before 0.1 Gy, fourth mating trial, P<0.001 vs. vehicle-treated irradiated females",75%
same,"irradiated females delivering litters, first mating trial","C57BL/6J female mice; 200 μM S1P before 0.1 Gy, mating 2 months post-irradiation, n=8",all
same,litter size,"C57BL/6J female mice; S1P-treated irradiated group (0.1 Gy), average",6.1±0.4 pups per mating
same,frequency of rejection of pups by irradiated mothers,C57BL/6J female mice; mothers treated or not with S1P,no increase in the frequency of rejection of pups
same,phenotypic or behavioral abnormalities in F2 offspring,C57BL/6J female mice; second generation,no gross phenotypic or behavioral abnormalities
same,phenotypic or behavioral abnormalities in F1 offspring,C57BL/6J female mice; up to 18 months of age,No phenotypic or behavioral abnormalities
same,preservation of the germ cell reserve,"[1]; S1P approx. 50 and 200 μM intrabursal, two hours before 0.1 Gy, ovaries two weeks later",significant and dose-dependent preservation of the germ cell reserve
same,side effects on the ovaries,[1]; general statement,safe and without side effects on the ovaries
same,protection of follicle populations after irradiation,"[1]; highest dose of S1P (200 μM in bursal cavity), two hours before 0.1 Gy, two weeks post-irradiation","complete protection of the quiescent (primordial) and growing (primary, preantral) follicle populations; also recorded: retain a completely normal distribution of oocyte-containing follicles at all stages of development; also recorded: indistinguishable from non-irradiated controls; also recorded: Complete protection of the female germline from radiation-induced death"
same,number of follicles at any stage of development versus vehicle-treated ovaries,"[1]; in the absence of irradiation, intrabursal S1P",does not significantly differ
same,HCT,F1 and F2 mice; first group (N=69),45.4
same,"HGB, Hemoglobin",F1 and F2 mice; first group (N=69),14.2 g/dL
same,"MCH, Mean Corpuscular Hemoglobin",F1 and F2 mice; first group (N=69),15.3 pg
same,"MCHC, Mean Corpuscular Hemoglobin Content",F1 and F2 mice; first group (N=69),31.4 g/dL
same,"MCV, Mean Corpuscular Volume",F1 and F2 mice; first group (N=69),49.1 fL
same,"RBC, Red Blood Cell Count",F1 and F2 mice; first group (N=69),9.3e+12 L⁻¹
same,"WBC, Total White Blood Cell Count",F1 and F2 mice; first group (N=69),1.09e+10 L⁻¹
same,HCT,F1 and F2 mice; second group (N=189),46.3
same,"HGB, Hemoglobin",F1 and F2 mice; second group (N=189),14.9 g/dL
same,"MCH, Mean Corpuscular Hemoglobin",F1 and F2 mice; second group (N=189),15.9 pg
same,"MCHC, Mean Corpuscular Hemoglobin Content",F1 and F2 mice; second group (N=189),30.8 g/dL
same,"MCV, Mean Corpuscular Volume",F1 and F2 mice; second group (N=189),49.2 fL
same,"RBC, Red Blood Cell Count",F1 and F2 mice; second group (N=189),9.4e+12 L⁻¹
same,"WBC, Total White Blood Cell Count",F1 and F2 mice; second group (N=189),1.1e+10 L⁻¹
same,gross histologic or biochemical abnormalities in offspring,"F1 and F2 mice; F1 at 18-20 months, F2 at 12-16 months",No gross histologic or biochemical abnormalities
same,"Pathology, gross necropsy",F1 and F2 mice; N=69,Enlarged uterus; also recorded: Perineal tumor
same,"Pathology, histology","F1 and F2 mice; N=69, numbers in parenthesis = animals",LI in liver (2); also recorded: LI in lung (3); also recorded: Mucometra; also recorded: Lipoma
same,"Pathology, gross necropsy",F1 and F2 mice; [3],Dermatitis (3); also recorded: Cyst in right ovary; also recorded: Alopecia; also recorded: Traumatic injury
same,"Pathology, histology",F1 and F2 mice; [3],LI in lung (7); also recorded: Liver (3); also recorded: Kidney; also recorded: Ovarian cyst
same,protection of oocytes from doxorubicin-induced death in vitro,oocytes,protected the oocytes from death induced by subsequent doxorubicin exposure for up to 24 hours
same,protection of oocyte population from apoptotic death following radiotherapy,[2],essentially protects the entire oocyte population from apoptotic death
